How the values were obtained:
RecG⋅DNA(A40:B40) = molecular target: T1, RecG⋅DNA(A40:B40) (Thermotoga maritima, UniProt Q9WY48); assay: Pi release with excess ATP, global fit to ATPase cycle model; type: biochemical; conditions: 0.5 µM RecG, 2.5 µM DNA (A40:B40)
T1 construct: made in house
T1 sequence (Q9WY48 1-780): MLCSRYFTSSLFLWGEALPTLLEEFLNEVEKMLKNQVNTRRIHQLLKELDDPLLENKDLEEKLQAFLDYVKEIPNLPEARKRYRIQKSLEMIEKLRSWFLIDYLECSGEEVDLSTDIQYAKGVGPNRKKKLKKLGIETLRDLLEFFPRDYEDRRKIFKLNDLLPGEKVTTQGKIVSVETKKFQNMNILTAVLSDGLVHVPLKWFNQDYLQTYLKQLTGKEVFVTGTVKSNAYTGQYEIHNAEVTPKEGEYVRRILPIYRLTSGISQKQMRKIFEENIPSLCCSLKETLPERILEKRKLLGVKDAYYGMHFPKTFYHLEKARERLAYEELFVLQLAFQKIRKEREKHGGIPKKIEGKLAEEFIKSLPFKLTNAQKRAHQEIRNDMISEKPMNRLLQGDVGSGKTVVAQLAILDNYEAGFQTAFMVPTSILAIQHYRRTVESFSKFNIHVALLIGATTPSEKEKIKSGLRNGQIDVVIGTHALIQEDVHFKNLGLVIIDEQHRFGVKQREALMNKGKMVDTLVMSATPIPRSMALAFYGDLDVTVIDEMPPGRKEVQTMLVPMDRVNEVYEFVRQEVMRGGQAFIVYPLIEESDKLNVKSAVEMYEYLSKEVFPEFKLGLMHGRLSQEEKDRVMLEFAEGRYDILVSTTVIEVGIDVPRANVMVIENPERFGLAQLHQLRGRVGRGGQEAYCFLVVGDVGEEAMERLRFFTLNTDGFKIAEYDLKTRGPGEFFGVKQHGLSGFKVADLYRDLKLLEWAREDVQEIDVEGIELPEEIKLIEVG
Experimental: The rate of Pi release was measured after mixing RecG⋅DNA with excess ATP, using the phosphate biosensor, in the stopped-flow apparatus (Figure 6A). […] Both phases are dependent on ATP concentration. The lag decreased, while the rate of the linear phase increased with greater concentrations of ATP. The lag is due to the steps prior to Pi release, namely ATP binding and cleavage. […] Such a burst phase would result from the relatively fast Pi release of the initial cycle before the Pi release of subsequent cycles was limited by slow ADP release.
Figure 6 ATPase cycle measurements with unmodified nucleotides. (A) Phosphate measurements at different ATP concentrations. 0.5 µM RecG, premixed with 2.5 µM DNA (A40:B40), was then mixed in the stopped-flow apparatus with ATP at the micromolar concentrations shown, in the presence of 10 µM MDCC-PBP. (B) Best fit time courses of the Pi release, based upon a model of the ATPase cycle, as described in the text. Curves were obtained by glogal fitting the curves at different concentrations, using Global kinetic Explorer. Note that in comparison, the experimental time courses show a small transient of Pi at times <100 ms. This is likely to be due to free Pi and this behavior, overlaying a lag, has been observed previously in multi-turnover measurements. (C) ADP Release kinetics. 10 µM RecG⋅DNA (A40∶B40) was pre-bound with 10 µM ADP before mixing with an excess of mantADP (20 µM): these concentrations are final in the mixing chamber. The increase in fluorescence was fitted to single exponential giving the dissociation rate constant of 11.4 (±2.2) s^−1. Rate constants were independent of mantADP concentration in the range of 20–80 µM.
A scheme of the ATPase cycle (Figure 2) was used to simulate the data to assess the individual rate constants. […] The simulated traces (Figure 6B) were obtained from a global fit to the experimental data. This was done by allowing only the rate constants that have maximum influence on the curve shapes to vary. Cleavage and Pi release were assumed to be irreversible. For the fit, Pi release was fixed at 100 s^–1, ADP release at 12.5 s^–1, as the fitting was relatively insensitive to changes in these constants. […] The resulting best fit gave rate constants for ATP binding as 0.65 (±0.02) µM^−1s^−1, dissociation of ATP as 10.0 (±0.6) s^−1, cleavage as 7.1 (±0.1) s^−1. The fit gave a cleavage rate constant similar to the value of k cat from the steady-state analysis (Table 1a). The rate constant for ADP release may be only slightly larger than that of cleavage step.
Data were fitted to theoretical equations using the stopped-flow software or Grafit. Kinetic simulations were performed using Berkeley Madonna (Version 8.3, University of California at Berkeley) and using Global Kinetic Explorer (Kintek). […]

RecG = molecular target: T2, RecG (Thermotoga maritima, UniProt Q9WY48); assay: Steady-state ATPase rate measurements with phosphate biosensor MDCC-PBP; type: biochemical; conditions: no DNA, 20°C, 10 nM RecG
T2 construct: made in house
T2 sequence (Q9WY48 1-780): T1 sequence (Q9WY48 1-780)

Nc1ncnc2c1ncn2[C@@H]1O[C@H](COP(=O)(O)OP(=O)(O)OP(=O)(O)O)[C@@H](O)[C@H]1O [ATP]
cleavage (global fit) (RecG⋅DNA(A40:B40)): 7.1 (±0.1) s^−1 | dissociation of ATP (global fit) (RecG⋅DNA(A40:B40)): 10.0 (±0.6) s^−1 | rate constant for ATP binding (global fit) (RecG⋅DNA(A40:B40)): 0.65 (±0.02) µM^−1s^−1 | K m (RecG): 7.5 (±3.1) µM | k cat (RecG): 0.2 (±0.1) s^−1

Source: publication PMC3368886, “ATPase Cycle and DNA Unwinding Kinetics of RecG Helicase” (PLoS ONE, 2012)
